Reference: patent publication US10786690B2, “Amide derivatives of polycaffeoylquinic acids, process for producing same and uses thereof” (TEMISIS, priority 2016, dated 2020)

Tests used:
[1] = tested on: IL-6; assay: IL-6 production by NHEKs in the inflammatory state (PMA + calcium ionophore, 0.8 mM Ca2+), ELISA; assay type: cell-based, human; conditions: PMA + calcium ionophore A23187, 0.8 mM Ca2+, compounds 50 μM, dexamethasone 10 μM, relative to induced control
Method: The study was carried out on Normal Human Epidermal Keratinocytes (NHEKs) (Lonza, CC-2507, origin: foreskin) in monolayer culture in Epilife medium (Invitrogen, M-EPI-500-A) containing the components of the Human Keratinocyte Growth Supplement (HKGS) mixture (Invitrogen, S-001-K) added separately, except hydrocortisone having anti-inflammatory properties.
For the quantification of IL-8 and PGE2, the inflammatory state of the NHEKs in culture was induced by treatment with PMA (phorbol myristate acetate/10 ng/ml/H2O) for 24 h. […]
Quantification of the various inflammatory mediators was carried out with specific kits, based on a standard curve, according to the instructions provided by the kits' suppliers, R&D Systems and Cayman Chemical.
Before induction of the inflammatory state, the NHEKs were treated with the compounds and reference molecules for 2 h. The inflammatory state was then induced according to the conditions described in the methodology section, the culture supernatants were collected, and the various inflammatory mediators were quantified by the ELISA technique.
The effect of the compounds on IL-6 production by NHEKs in the inflammatory state is shown in FIG. 6 and is expressed as a percentage of the treatment with PMA combined with calcium ionophore A23187 (under high-calcium conditions: 0.8 mM Ca2+).

[2] = tested on: female SKH-1 hairless mice; assay: TPA-induced skin inflammation in female SKH-1 hairless mice, macroscopic visual scoring; assay type: in vivo
Method: The study is performed on 18 female SKH-1 hairless mice, weighing roughly 20-25 g and divided into 3 groups (n=6/housed in pairs) under controlled temperature (24±2° C.) and humidity (50±20%) conditions and with a 12-hour reversed light cycle (light from 21:00 to 09:00) (food and water ad libitum).
The compounds to be tested are as follows: • Excipial® ointment (control) • PAT1657 (octyl-isochlorogenamide A) incorporated at 1.33% or 2.67% by mass in Excipial® ointment
The treatment groups are distributed as follows: • G1: induced skin inflammation+daily treatment with vehicle (Excipial® ointment) (Control), • G2: induced skin inflammation+treatment with PAT1657 incorporated at 1.33% by mass in Excipial® ointment (PAT1657/1.33%), • G3: induced skin inflammation+treatment with PAT1657 incorporated at 2.67% by mass in Excipial® ointment (PAT1657/2.67%). Induction and Maintenance of Skin Inflammation
Skin inflammation is induced for each mouse by daily dorsal cutaneous application to Zone A (FIG. 9) for 7 days (day 1 to day 7) of 100 μL of TPA acetone solution at a concentration of 0.2 mg/ml.
It is then maintained by cutaneous application every 2 days for 7 days (day 8 to day 14) of 100 μl of TPA acetone solution.
For the vehicle, the animals (G1) were treated daily by cutaneous application of 0.125 g of ointment on the backs of the mice just off the zone of application of TPA acetone solution (roughly 5 cm^2 area corresponding to zones A and B shown in FIG. 9), for 7 days from day 8 to day 14.
For compound PAT1657, the animals (G2 and G3) were treated by cutaneous application of 0.125 g of ointment on the backs of the mice just off the zone of application of TPA acetone solution (roughly 5 cm^2 area corresponding to zones A and B shown in FIG. 9), on days 8, 11 and 14.
Macroscopic visual scoring of skin inflammation is performed daily for each mouse from day 8 to day 15 by quantifying it according to the following scale (Guenon-Macé et al., 2015):
Macroscopic visual scoring of skin inflammation makes it possible to quantify the following parameters: • degree of skin inflammation in the TPA acetone solution application zone and in the ointment treatment zone corresponding to zone A in FIG. 9, • degree of skin inflammation in the ointment treatment zone and outside the TPA acetone solution application zone corresponding to zone B in FIG. 9, • degree of skin inflammation on the rest of the back corresponding to zone C in FIG. 9, • Overall macroscopic score of skin inflammation (total of the scores of the three zones A, B and C shown in FIG. 9). Result Animal Mortality

[3] = PAT1657 at 1.33% and 2.67% in Excipial ointment, relative to control, from day 10 onwards

CCCCCCCCNC(=O)[C@]1(O)C[C@@H](OC(=O)/C=C/c2ccc(O)c(O)c2)[C@@H](O)[C@H](OC(=O)/C=C/c2ccc(O)c(O)c2)C1 [PAT1657, (2E,2′E)-((1R,2S,3R,5S)-2,5-dihydroxy-5-(octylcarbamoyl)cyclohexane-1,3-diyl) bis(3-(3,4-dihydroxyphenyl)acrylate)]
IL-6 production [1]: largest decreases and are more effective than dexamethasone itself | degree of skin inflammation, zone A (TPA application zone and treatment zone) ([2]; PAT1657 at 1.33% and 2.67% in Excipial ointment, cutaneous, days 8, 11, 14, relative to control, from day 13 onwards): significant decrease | degree of skin inflammation, zone C (rest of the back) [2, 3]: significant decrease | overall degree of skin inflammation (zones A, B and C) [2, 3]: significant decrease | degree of skin inflammation, zone B (treatment zone outside TPA application zone) ([2]; PAT1657 at 1.33% and 2.67% in Excipial ointment, relative to control, from day 13 onwards): significant decrease | reaction to application of the products ([2]; SKH-1 mice, cutaneous application of ointments): No reaction was observed | intensity of skin inflammation from a macroscopic point of view ([2]; two doses, cutaneous application every 3 days, curative treatment, dose-dependent effect): significantly reduced
